In the NIST ThermoML archive (doi:10.1016/j.jct.2014.02.008):

Assay: cn = amount concentration of the nth substance listed, in mol/dm3
Conditions: 298.15 K, 101 kPa, Liquid, Taylor dispersion method

NCCCC[C@H](N)C(=O)O [L-lysine] + O
Conditions | binary diffusion coefficient [m2/s]
c1 = 0.001 | 6.66e-10
c1 = 0.005 | 6.62e-10
c1 = 0.01 | 6.61e-10
c1 = 0.02 | 6.59e-10
c1 = 0.03 | 6.52e-10
c1 = 0.05 | 6.46e-10
c1 = 0.1 | 6.26e-10
